The record followed here is patent US20240166660A1, “KRAS G12C INHIBITORS” (BeiGene Switzerland GmbH, priority 2021, published 2024).

The test concerns the target KRAS (aa 1-169) G12C, C51S, C80L, C118S (Homo sapiens (Human), UniProt P01116, C118S/C51S/C80L/G12C). In words: Biochemical functional assay: SOS1-mediated nucleotide exchange of GDP-loaded KRAS G12C, binding to GST-cRaf RBD, FRET readout. Conditions: 3 hrs pre-incubation with compound at 24° C., SOS1, GTPyS, inhibition of nucleotide exchange. The protocol: Biochemical Functional Assay
The KRAS (aa 1-169) G12C, C51S, C80L, C118S with a His-tag was expressed, purified and loaded with GDP in house. All protein and substrate solutions were prepared in assay buffer containing 25 mM HEPES pH7.5, 10 mM MgCl2, and 0.01% Triton X-100. Purified GDP-loaded KRAS (aa 1-169) G12C, C51S, C80L, C118S protein was pre-incubated with a serially diluted compound at 24° C. for 3 hrs. Purified SOS1 (aa 564-1049) protein, GTPyS (Sigma) and GST-cRaf RBD (aa 1-149) were then added to each well and incubated at 24° C. for additional 3 hrs. […] Following the incubation, Mab Anti-6HIS-T cryptate (Cisbio) and Mab Anti GST-XL665 (Cisbio) were added and further incubated at 24° C. for 3 hrs. The binding interaction between active GTPyS KRAS G12C and GST-cRaf RBD brings the Tb and XL665 into close proximity enabling an increased FRET signal (Ex337 nm, Em665 nm/620 nm). The inhibition percentage of nucleotide exchange reaction in presence of increasing concentrations of compounds was calculated based on the ratio of fluorescence at 665 nm to that at 620 nm detected on a BMG PHERAstar FSX instrument. The IC50 value of each compound was calculated from fitting the data to the four-parameter logistic model by Dotmatics.

Sequence of KRAS (aa 1-169) G12C, C51S, C80L, C118S (P01116 other isoform, or with tags, fused parts or gaps G12C/C51S/C80L/C118S): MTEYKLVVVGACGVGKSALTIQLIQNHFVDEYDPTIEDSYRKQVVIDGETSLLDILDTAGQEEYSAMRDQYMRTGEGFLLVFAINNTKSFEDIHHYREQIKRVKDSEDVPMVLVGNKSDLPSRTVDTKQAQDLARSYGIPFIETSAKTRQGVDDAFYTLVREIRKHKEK

With `C=C(F)C(=O)N1CCN(c2nc(OCC3C[C@@H](OC)CN3C)nc3cc(-c4cccc5cccc(Cl)c45)c4c(c23)OCCC4)C[C@@H]1CC#N` (mixture of isomers) [Compound B93, 2-((2S)-4-(5-(8-chloronaphthalen-1-yl)-8-(((4R)-4-methoxy-1-methylpyrrolidin-2-yl)methoxy)-3,4-dihydro-2H-pyrano[2,3-f]quinazolin-10-yl)-1-(2-fluoroacryloyl)piperazin-2-yl)acetonitrile], the IC50 worked out at 11 nM.

For the compound `C=CC(=O)N1CCN(c2ncnc3cc(-c4c(Cl)ccc5[nH]ncc45)c4c(c23)OCCC4)C[C@@H]1CC#N` (single isomer, unassigned) [Compound A14], the IC50 was 79.4 nM.

In the case of `C=CC(=O)N1CCN(c2ncnc3cc(-c4c(Cl)ccc5[nH]ncc45)c4c(c23)OCCC4)C[C@@H]1CC#N` (single isomer, unassigned) [Compound A15], the half-maximal inhibitory concentration (IC50) amounted to 92.6 nM.

Regarding `C=C(F)C(=O)N1CCN(c2nc(OC[C@@H]3CCCN3C)nc3cc(-c4cccc5cccc(Cl)c45)c4c(c23)OCCC4)C[C@@H]1CC#N` (single isomer, unassigned) [Compound B67], the IC50 stood at 4.6 nM.

On to `C=C(F)C(=O)N1CCN(c2nc(OC[C@@H]3CCCN3C)nc3cc(-c4cccc5cccc(Cl)c45)c4c(c23)OCCC4)C[C@@H]1CC#N` (single isomer, unassigned) [Compound B68], for which the half-inhibitory concentration (IC50) amounted to 177 nM.

With `C=C(F)C(=O)N1CCN(c2nc(N3CC(CC#N)(N(C)C)C3)nc3cc(-c4cccc5cccc(Cl)c45)c4c(c23)OCCC4)C[C@@H]1CC#N` (single isomer, unassigned) [Compound B91], the half-inhibitory concentration (IC50) came to 15 nM.

As for `C=C(F)C(=O)N1CCN(c2nc(N3CC(CC#N)(N(C)C)C3)nc3cc(-c4cccc5cccc(Cl)c45)c4c(c23)OCCC4)C[C@@H]1CC#N` (single isomer, unassigned) [Compound B92], the IC50 came to 381 nM.

As to `C=C(F)C(=O)N1CCN(c2nc(OCC3C[C@@H](OC)CN3C)nc3cc(-c4cccc5cccc(Cl)c45)c4c(c23)OCCC4)C[C@@H]1CC#N` (single isomer, unassigned) [Compound B94], the IC50 came out at 4.63 nM.

As to `C=C(F)C(=O)N1CCN(c2nc(OCC3C[C@@H](OC)CN3C)nc3cc(-c4cccc5cccc(Cl)c45)c4c(c23)OCCC4)C[C@@H]1CC#N` (single isomer, unassigned) [Compound B95], the IC50 worked out at 11.5 nM.

Consider `C=C(F)C(=O)N1CCN(c2nc(OCC3C[C@@H](OC)CN3C)nc3cc(-c4cccc5cccc(Cl)c45)c4c(c23)OCCC4)C[C@@H]1CC#N` (single isomer, unassigned) [Compound B96], for which the IC50 amounted to 140 nM.

`C=C(F)C(=O)N1CCN(c2nc(OCC3C[C@@H](OC)CN3C)nc3cc(-c4cccc5cccc(Cl)c45)c4c(c23)OCCC4)C[C@@H]1CC#N` (single isomer, unassigned) [Compound B97]: the 50% inhibitory concentration (IC50) stood at 508 nM.

Regarding `C=C(F)C(=O)N1CCN(c2nc(N3CC(N(C)C)C3)nc3cc(-c4cccc5cccc(Cl)c45)c4c(c23)OCCC4)C[C@@H]1CC#N` (single isomer, unassigned) [Compound B101], the 50% inhibitory concentration (IC50) is 6.53 nM.

With `C=C(F)C(=O)N1CCN(c2nc(N3CC(N(C)C)C3)nc3cc(-c4cccc5cccc(Cl)c45)c4c(c23)OCCC4)C[C@@H]1CC#N` (single isomer, unassigned) [Compound B102], the IC50 is 354 nM.

In the case of `C=C(F)C(=O)N1CCN(c2nc(OC[C@H]3CCCN3C)nc3cc(-c4cccc5cccc(Cl)c45)c4c(c23)OCCC4)C[C@@H]1CC#N` (single isomer, unassigned) [Compound B104], the IC50 turned out to be 8.16 nM.

For `C=C(F)C(=O)N1CCN(c2nc(OC[C@H]3CCCN3C)nc3cc(-c4cccc5cccc(Cl)c45)c4c(c23)OCCC4)C[C@@H]1CC#N` (single isomer, unassigned) [Compound B105], the IC50 was 290 nM.

Consider `C=C(F)C(=O)N1CCN(c2nc(OC[C@H]3C[C@@H](OC)CN3C)nc3cc(-c4cccc5cccc(Cl)c45)c4c(c23)OCCC4)C[C@@H]1CC#N` (single isomer, unassigned) [Compound B106], for which the IC50 was 9.54 nM.

Consider `C=C(F)C(=O)N1CCN(c2nc(OC[C@H]3C[C@@H](OC)CN3C)nc3cc(-c4cccc5cccc(Cl)c45)c4c(c23)OCCC4)C[C@@H]1CC#N` (single isomer, unassigned) [Compound B107], for which the half-inhibitory concentration (IC50) is 3.26 nM.

With `C=C(F)C(=O)N1CCN(c2nc(OC[C@@H]3CCCN3C)nc3cc(-c4c(Cl)c(C)cc5[nH]ncc45)c4c(c23)OCCC4)C[C@@H]1CC#N` (single isomer, unassigned; atropisomer1) [Compound B12], the 50% inhibitory concentration (IC50) is 4.6 nM.

For the compound `C=C(F)C(=O)N1CCN(c2nc(OC[C@@H]3CCCN3C)nc3cc(-c4c(Cl)c(C)cc5[nH]ncc45)c4c(c23)OCCC4)C[C@@H]1CC#N` (single isomer, unassigned; atropisomer 2) [Compound B13], the half-inhibitory concentration (IC50) is 325 nM.

`C=CC(=O)N1CCN(c2ncnc3cc(-c4cccc5ccccc45)c4c(c23)OC(C)(C)CC4)CC1` [Compound A1, 1-(4-(2,2-dimethyl-5-(naphthalen-1-yl)-3,4-dihydro-2H-pyrano[2,3-f]quinazolin-10-yl)piperazin-1-yl)prop-2-en-1-one]: the 50% inhibitory concentration (IC50) was 5500 nM.

With `C=CC(=O)N1CCN(c2ncnc3cc(-c4c(O)cccc4F)c4c(c23)OC(C)(C)CC4)CC1` [Compound A2, 1-(4-(5-(2-fluoro-6-hydroxyphenyl)-2,2-dimethyl-3,4-dihydro-2H-pyrano[2,3-f]quinazolin-10-yl)piperazin-1-yl)prop-2-en-1-one], the IC50 was found to be 2120 nM.

On to `C=CC(=O)N1CCN(c2ncnc3cc(-c4c(O)cccc4F)c4c(c23)OC(C)(C)CC4)C[C@@H]1CC#N` [Compound A3, 2-((2S)-1-acryloyl-4-(5-(2-fluoro-6-hydroxyphenyl)-2,2-dimethyl-3,4-dihydro-2H-pyrano[2,3-f]quinazolin-10-yl)piperazin-2-yl)acetonitrile], for which the IC50 was found to be 559 nM.

As to `C=CC(=O)N1CCN(c2ncnc3cc(-c4c(O)cccc4F)c4c(c23)OCCC4)C[C@@H]1CC#N` [Compound A4, 2-((2S)-1-acryloyl-4-(5-(2-fluoro-6-hydroxyphenyl)-3,4-dihydro-2H-pyrano[2,3-f]quinazolin-10-yl)piperazin-2-yl)acetonitrile], the concentration for half-maximal inhibition (IC50) was determined as 89.6 nM.

In the case of `C=CC(=O)N1CC2(CCN(c3ncnc4cc(-c5c(O)cccc5F)c5c(c34)OCCC5)CC2)C1` [Compound A5, 1-(7-(5-(2-fluoro-6-hydroxyphenyl)-3,4-dihydro-2H-pyrano[2,3-f]quinazolin-10-yl)-2,7-diazaspiro[3.5]nonan-2-yl)prop-2-en-1-one], the IC50 worked out at 1690 nM.

As to `C=CC(=O)N1CC2CN(c3ncnc4cc(-c5c(O)cccc5F)c5c(c34)OC(C)(C)CC5)CC2C1` (stereo not shown) [Compound A6, 1-(5-(5-(2-fluoro-6-hydroxyphenyl)-2,2-dimethyl-3,4-dihydro-2H-pyrano[2,3-f]quinazolin-10-yl)hexahydropyrrolo[3,4-c]pyrrol-2(1H)-yl)prop-2-en-1-one], the 50% inhibitory concentration (IC50) is 3540 nM.

In the case of `C=CC(=O)N1CCN(c2ncnc3cc(-c4cccc5ccccc45)c4c(c23)OCCC4)C[C@@H]1CC#N` [Compound A7, (S)-2-(1-acryloyl-4-(5-(naphthalen-1-yl)-3,4-dihydro-2H-pyrano[2,3-f]quinazolin-10-yl)piperazin-2-yl)acetonitrile], the IC50 came out at 43.1 nM.

Take `C=CC(=O)N1CCN(c2ncnc3cc(-c4cccc5ccccc45)c4c(c23)OCC=C4)C[C@@H]1CC#N` [Compound A8, (S)-2-(1-acryloyl-4-(5-(naphthalen-1-yl)-2H-pyrano[2,3-f]quinazolin-10-yl)piperazin-2-yl)acetonitrile]: the IC50 turned out to be 82.1 nM.

Consider `C=CC(=O)N1CCN(c2ncnc3cc(-c4c(C)ccc5[nH]ncc45)c4c(c23)OCC=C4)C[C@@H]1CC#N` [Compound A9, 2-((2S)-1-acryloyl-4-(5-(5-methyl-1H-indazol-4-yl)-2H-pyrano[2,3-f]quinazolin-10-yl)piperazin-2-yl)acetonitrile], for which the IC50 is 218 nM.

As for `C=CC(=O)N1CCN(c2ncnc3cc(-c4c(C)ccc5[nH]ncc45)c4c(c23)OCCC4)C[C@@H]1CC#N` [Compound A10, 2-((2S)-1-acryloyl-4-(5-(5-methyl-1H-indazol-4-yl)-3,4-dihydro-2H-pyrano[2,3-f]quinazolin-10-yl)piperazin-2-yl)acetonitrile], the IC50 was found to be 598 nM.

As to `C=CC(=O)N1CCN(c2ncnc3cc(-c4cc(C)cc5[nH]ncc45)c4c(c23)OCCC4)C[C@@H]1CC#N` [Compound A11, (S)-2-(1-acryloyl-4-(5-(6-methyl-1H-indazol-4-yl)-3,4-dihydro-2H-pyrano[2,3-f]quinazolin-10-yl)piperazin-2-yl)acetonitrile], the IC50 worked out at 799 nM.

Turning to `C=CC(=O)N1CCN(c2ncnc3cc(-c4cccc5ccccc45)c4c(c23)OCCC4)CC1` [Compound A12, 1-(4-(5-(naphthalen-1-yl)-3,4-dihydro-2H-pyrano[2,3-f]quinazolin-10-yl)piperazin-1-yl)prop-2-en-1-one], the IC50 was 1660 nM.
